US20140357512A1, “HISTONE DEACETYLASE (HDAC) BIOMARKERS IN MULTIPLE MYELOMA” (priority 2013, published 2014)

Test system: human myeloma cell line MM.1S
Assay: SILAC acetylated-lysine peptide profiling, HDAC inhibitor vs DMSO (light/heavy ratio)
Assay type: cell-based
From the text: An embodiment of the invention comprises utilizing the SILAC method in order to quantitate changes in protein expression between two or more populations of cells. The SILAC method is a technique based on mass spectrometry that detects differences in protein abundance among samples using non-radioactive isotopic labeling. The SILAC method is known in the art, and described in detail in Ong et al., “Stable Isotope Labeling by Amino Acids in Cell Culture, SILAC, as a Simple and Accurate Approach to Expression Proteomics”, Molecular & Cellular Proteomics, vol. 1, pp. 376-386 (2002), which is incorporated herein by reference in its entirety.
Briefly, the SILAC method involves growing two populations of cells in cell culture. The first population of cells is grown in growth media containing normal amino acids (“normal media”). The second population of cells is grown in media lacking a standard essential amino acid (such as lysine), but is then supplemented with a non-radioactive, isotopically labeled form of that essential amino acid (such as lysine labeled with ^13C atoms, rather than normal ^12C atoms), which is called “heavy media”. When the two populations of cells are each growing in the medium, they incorporate the amino acids into all of their proteins. The growth of cells maintained in the heavy media is no different from that in normal media. All peptides containing the heavy amino acids are heavier than their normal counterparts. The cells from each of the two populations of cells are lysed. The lysates from each of the two cell populations are then combined. The combined cell lysates are then analyzed by mass spectrometry. Pairs of chemically identical peptides of different stable isotope composition can be differentiated in a mass spectrometer due to their difference in mass. The ratio of peak intensities in the mass spectrum for such peptide pairs reflects the abundance ratio for the two proteins.
This example describes SILAC studies that were performed to compare the effects of three different HDAC inhibitors (Compound A, Compound B, and tubastatin A) to a control on a human multiple myeloma cell line. The HDAC inhibitors were also compared amongst themselves to determine differences in their effects.
A human myeloma cell line MM.1S was grown using either ^12C (light) or ^13C (heavy) lysine containing culture medium. The “heavy” cells were treated with DMSO as the control, and the “light” cells were treated with a single HDAC inhibitor at 37° C. for 6 hours. The heavy and light cells were lysed, and the lysates were mixed in 1:1 ratio and digested with the protease trypsin. The acetylated lysine containing peptides (due to the action of the HDAC inhibitor) in the digested peptide pool were captured by a non-specific anti-acetylated lysine antibody cocktail (the antibodies identify both light and heavy acetylated peptides), and subjected to mass spectrometry analysis in order to identify thousands of individual peptides.
Thousands of peptides were identified in pairs (^12C and ^13C) due to their known mass differences. The amino acid sequence and quantitative ratio (Light/Heavy) of a given peptide in two differentially treated cell lysates were then determined and annotated with their possible protein (gene) sources.
As stated above, three HDAC inhibitors (Compound A, Compound B, and Tubastatin A) were used. Thus, the SILAC method was performed three times, with a different HDAC inhibitor compared to a control each time. Accordingly, there are three pairs of quantitative data in the table below, i.e., Compound A:DMSO, Compound B:DMSO, and Tubastatin A:DMSO. A cut-off of 1.30 fold of change (increase or decrease) was then used to determine “changed” or “+” in the table, and any peptides with a fold of change less than 1.3 fold were determined to be “unchanged” or “0” in the table. Those peptides that were not identified were marked as “NA” in the table. […]

**Q.** Which “L/H ratio of acetylated peptide LDHLAEK(ac)FR (SEQ ID NO: 20)” value (ACTN1 [398], log 2 scale, drug vs DMSO) does the source give for `O=C(NO)c1cnc(NC2(c3cccc(F)c3)CCCCC2)nc1` [Compound B, 2-((1-(3-fluorophenyl)cyclohexyl)amino)-N-hydroxypyrimidine-5-carboxamide] here?
**A.** Its value is 0.00.

**Q.** What about the “L/H ratio of acetylated peptide […](ac)FVYQAK (SEQ ID NO: 126)” value (ADAR [757], log 2 scale, drug vs DMSO) of the same compound?
**A.** The value was 0.00.

**Q.** And the “light to heavy ratio (L/H ratio) of acetylated peptide, log 2 scale” value (shortened to “light to heavy ratio (L/H ratio) … log 2 scale”) (ADINTK(ac)WAATR (SEQ ID NO: 202), Ribosomal protein L14 variant [85], RPL14)?
**A.** The value was 0.00.

**Q.** What about the “light to heavy ratio (L/H ratio) … log 2 scale” value (ADK(ac)DYHFK (SEQ ID NO: 191), Isoform 2 of Nucleophosmin [27], NPM1) of the same compound?
**A.** The value was 0.00.

**Q.** And the “light to heavy ratio (L/H ratio) of acetylated peptide TTLLYK(ac)LK (SEQ ID NO: 624)” value (ADP-ribosylation factor-like protein 11 [31], gene ARL11, inhibitor:DMSO)?
**A.** The value was 0.00 log 2.

**Q.** What about the “light to heavy ratio (L/H ratio) of acetylated peptide IFK(ac)SDGLR (SEQ ID NO: 280)” value (ADP/ATP translocase 1 [166], SLC25A4, drug:DMSO) of the same compound?
**A.** Its value is 0.00 log 2.

**Q.** And the “light to heavy ratio (L/H ratio) of acetylated peptide ITK(ac)SDGIR (SEQ ID NO: 587)” value (ADP/ATP translocase 3 [166], gene SLC25A6, inhibitor:DMSO)?
**A.** The value was 0.00 log 2.

**Q.** And the “L/H ratio of acetylated peptide” value (AELSK(ac)LVIVAK (SEQ ID NO: 370), UPF0556 protein C19orf10 [161], C19orf10)?
**A.** Its value is 1.00 log 2.

**Q.** And the “L/H ratio of acetylated peptide HLSDSINQK(ac)HFEQAIER” value (AFG3L2 [543], log 2 scale, drug vs DMSO)?
**A.** The value was 0.00.

**Q.** What about the “L/H ratio of acetylated peptide” value (AFQLK(ac)SR (SEQ ID NO: 439), ribonucleoprotein PTB-binding 1 [579], RAVER1) of the same compound?
**A.** Its value is −0.89 log 2.

**Q.** And the “light to heavy ratio (L/H ratio) … log 2 scale” value (AFYK(ac)SFSK (SEQ ID NO: 170), Endoplasmin [360], HSP90B1)?
**A.** Its value is 0.00.

**Q.** What about the “L/H ratio of acetylated peptide” value (AK(ac)FESMAEEK (SEQ ID NO: 402), Hematopoietic lineage cell-specific protein [241], HCLS1) of the same compound?
**A.** The value was 1.00 log 2.

**Q.** And the “light to heavy ratio (L/H ratio) … log 2 scale” value (ALDLNLK(ac)HQILPK (SEQ ID NO: 248), Cytochrome b-c1 complex subunit 7 [72], UQCRB)?
**A.** Its value is 0.00.

**Q.** And the “L/H ratio of acetylated peptide LK(ac)[…] (SEQ ID NO: 21)” value (ANP32B [101], log 2 scale, drug vs DMSO)?
**A.** The value was 0.00.

**Q.** And the “L/H ratio of acetylated peptide […](ac)SLYGK (SEQ ID NO: 22)” value (ANXA6 [63], log 2 scale, drug vs DMSO)?
**A.** The value was 0.00.

**Q.** What about the “L/H ratio of acetylated peptide LGTDESK(ac)FNAVLCSR (SEQ ID NO: 7)” value (ANXA11 [478], log 2 scale, drug vs DMSO) of the same compound?
**A.** The value was 0.50.

**Q.** And the “L/H ratio of acetylated peptide MYFDK(ac)[…] (SEQ ID NO: 23)” value (ATAD3A [491], log 2 scale, drug vs DMSO)?
**A.** Its value is 0.00.

**Q.** What about the “L/H ratio of acetylated peptide” value (ATAEEMTK(ac)YHSDEYIK (SEQ ID NO: 403), Histone deacetylase 2[161], HDAC2) of the same compound?
**A.** Its value is 0.78 log 2.

**Q.** And the “L/H ratio of acetylated peptide IVEYEK(ac)EMEK (SEQ ID NO: 24)” value (ATP5H [117], log 2 scale, drug vs DMSO)?
**A.** The value was 0.00.

**Q.** What about the “L/H ratio of acetylated peptide YYNK(ac)YINVK (SEQ ID NO: 12)” value (ATP5J2 [54], log 2 scale, drug vs DMSO) of the same compound?
**A.** The value was −0.43.

**Q.** What about the “light to heavy ratio (L/H ratio) of acetylated peptide QNK(ac)LEQVEK (SEQ ID NO: 271)” value (ATP synthase subunit O mitochondrial [54], ATP50, drug:DMSO) of the same compound?
**A.** The value was 0.00 log 2.

**Q.** And the “light to heavy ratio (L/H ratio) of acetylated peptide ISEQSDAK(ac)LK (SEQ ID NO: 600)” value (ATP synthase subunit alpha mitochondrial [539], gene ATP5A1, inhibitor:DMSO)?
**A.** Its value is 0.00 log 2.

**Q.** What about the “light to heavy ratio (L/H ratio) of acetylated peptide […](ac)ETIAK (SEQ ID NO: 307)” value (ATP synthase subunit b mitochondrial [233], ATP5F1, drug:DMSO) of the same compound?
**A.** The value was 0.00 log 2.

**Q.** What about the “light to heavy ratio (L/H ratio) of acetylated peptide […](ac)QLTVK (SEQ ID NO: 279)” value (ATP synthase subunit g mitochondrial [66], ATP5L, drug:DMSO) of the same compound?
**A.** The value was 0.00 log 2.

**Q.** And the “light to heavy ratio (L/H ratio) of acetylated peptide ELDPIQK(ac)LFVDK (SEQ ID NO: 365)” value (ATP synthase-coupling factor 6 mitochondrial [41], ATP5J, drug:DMSO)?
**A.** The value was −0.48 log 2.

**Q.** And the “light to heavy ratio (L/H ratio) of acetylated peptide FEDPK(ac)FEVIEKPQA (SEQ ID NO: 325)” value (ATP synthase-coupling factor 6 mitochondrial [99], ATP5J, drug:DMSO)?
**A.** Its value is −0.50 log 2.

**Q.** And the “light to heavy ratio (L/H ratio) … log 2 scale” value (AVEEK(ac)[…] (SEQ ID NO: 172), 78 kDa glucose-regulated protein [601], HSPA5)?
**A.** The value was 0.00.

**Q.** What about the “L/H ratio of acetylated peptide” value (AVSMDNSNK(ac)YTK (SEQ ID NO: 396), Forkhead box protein O3 [259], FOXO3) of the same compound?
**A.** The value was 0.45 log 2.

**Q.** And the “L/H ratio of acetylated peptide” value (AYHLQK(ac)STCGK (SEQ ID NO: 443), 60S ribosomal protein L37 [31], RPL37)?
**A.** The value was 0.42 log 2.

**Q.** And the “light to heavy ratio (L/H ratio) of acetylated peptide NAYVWTLK(ac)GR (SEQ ID NO: 361)” value (Actin-related protein 2/3 complex subunit 1B [82], ARPC1B, ARPC1A, drug:DMSO)?
**A.** Its value is −1.00 log 2.

**Q.** What about the “light to heavy ratio (L/H ratio) of acetylated peptide VFDPQNDK(ac)[…] (SEQ ID NO: 362)” value (Actin-related protein 2/3 complex subunit 3 [155], ARPC3, drug:DMSO) of the same compound?
**A.** Its value is 0.45 log 2.

**Q.** What about the “light to heavy ratio (L/H ratio) of acetylated peptide AFAK(ac)ELFLGK (SEQ ID NO: 627)” value (Acyl-CoA dehydrogenase family member 9 mitochondrial [41], gene ACAD9, inhibitor:DMSO) of the same compound?
**A.** The value was 0.00 log 2.
